Measurements published in the NIST ThermoML archive (doi:10.1016/j.jct.2014.04.003).
Numbers after ± are expanded uncertainties.

Test: molar enthalpy of vaporization or sublimation
Details: 298.15 K; Liquid; Static calorimetry

molar enthalpy: 50.7 ± 1.3 kJ/mol
SMILES: Cc1ccc(C)n1C [1,2,5-trimethylpyrrole]
